Test results: US12686687B2, “Compounds and uses thereof” (Foghorn Therapeutics Inc., priority 2019, dated 2026)
“Also recorded” adds a separate entry of the source.

Assays:
Type in all cases: cell-based, human
[1] = system: non-synovial control cancer cell lines (293T, A549, G401); assay: Growth of non-synovial control cancer cell lines (crystal violet staining, colony imaging); settings: 1 μM or indicated doses (FIGS. 5-7)
Description: (§1) Cells were treated with DMSO or the BRD9 degrader, Compound 1, at indicated concentrations, and proliferation was monitored from day 7 to day 14 by measuring confluency over time using an IncuCyte live cell analysis system (FIG. 5). Growth medium and compounds were refreshed every 3-4 days.
(§2) Cells were seeded into 12-well plates and treated with DMSO, 1 μM BRD9 inhibitor, Compound 2 (also known as BI-7273, see Martin et al, J Med Chem. 59(10):4462-4475 (2016); see structure of compound 2 below), or 1 μM BRD9 degrader, Compound 1.
(§3) The number of cells was optimized for each cell line. Growth medium and compounds were refreshed every 3-5 days. SYO1, Yamato, A549, 293T and HS-SY-II cells were fixed and stained at day 11. ASKA cells were fixed and stained at day 23. Staining was done by incubation with crystal violet solution (0.5 g Crystal Violet, 27 ml 37% Formaldehyde, 100 mL 10×PBS, 10 mL Methanol, 863 dH2O to 1 L) for 30 minutes followed by 3× washes with water and drying the plates for at least 24h at room temperature. Subsequently plates were scanned on an Odyssey CLx Imaging system (FIG. 6).
(§4) Cells were seeded into 96-well ultra low cluster plate (Costar, #7007) in 200 μL complete media and treated at day 2 with DMSO, Staurosporin, or BRD9 degrader, Compound 1, at indicated doses (FIG. 7).

[2] = system: non-synovial control cancer cell lines (RD, HCT116, and Calu6); assay: Growth of non-synovial control cancer cell lines, daily treatment, crystal violet at day 14; settings: treated daily, day 14 (FIG. 9)
Description: (§5) Procedure: Cells were seeded into 6-well or 12-well plates and were treated daily with a BRD9 degrader (Compound 1), a bromo-domain BRD9 binder (Compound 2), E3 ligase binder (lenalidomide), DMSO, or staurosporin (positive control for cell killing), at indicated concentrations. The number of cells was optimized for each cell line. Growth media was refreshed every 5 days. By day 14, medium was removed, cells were washed with PBS, and stained using 500 μL of 0.005% (w/v) crystal violet solution in 25% (v/v) methanol for at least 1 hour at room temperature.

SYO1 cells [3] = assay: Cell cycle analysis (Click-iT Plus EdU flow cytometry) in SYO1 cells; settings: SYO1, 200 nM or 1 μM, 8 or 13 days, compared to DMSO and lenalidomide
Description: (§6) Procedure: SYO1 cells were treated for 8 or 13 days with DMSO, a BRD9 degrader (Compound 1) at 200 nM or 1 μM, or an E3 ligase binder (lenalidomide) at 200 nM. Compounds were refreshed every 5 days. Cell cycle analysis was performed using the Click-iT™ Plus EdU Flow Cytometry Assay (Invitrogen). The apoptosis assay was performed using the Annexin V-FITC Apoptosis Detection Kit (Sigma A9210).

[4] = system: synovial sarcoma cell lines (SYO1, Yamato, HS-SY-II, and ASKA); assay: Growth of synovial sarcoma cell lines (IncuCyte confluency, crystal violet staining, colony imaging); settings: 1 μM or indicated concentrations (FIGS. 5-7)
Description: as §1, §2, §3, §4

[5] = system: synovial sarcoma cell lines (SYO1, HS-SY-II, and ASKA); assay: Growth of synovial sarcoma cell lines, daily treatment, crystal violet at day 14; settings: treated daily, day 14 (FIG. 8)
Description: as §5

SYO1 cells [6] = assay: Apoptosis assay (Annexin V-FITC) in SYO1 cells; settings: SYO1, 200 nM or 1 μM, 8 days, compared to DMSO controls
Description: as §6

Structure (SMILES): COc1cc(-c2cn(C)c(=O)c3cnccc23)cc(OC)c1CN(C)CC(=O)NCCOCCOCCNc1cccc2c1C(=O)N(C1CCC(=O)NC1=O)C2=O (stereo not drawn) [Compound 1]
- inhibition of cell growth [1]: does not result in inhibition of the growth
- inhibition of cell growth [2]: did not result in inhibition of the growth
- cells in the S-phase of the cell cycle (SYO1 cells [3]): reduced numbers of cells in the S-phase
- inhibition of cell growth [4]: inhibition of the growth of the cells
- inhibition of cell growth [5]: inhibition of the growth of the cells; also recorded: most significant growth inhibition
- early- and late-apoptotic cells (SYO1 cells [6]): increased numbers of early- and late-apoptotic cells
